Test results as given in patent publication US8247449B2, “Methods and compositions for the treatment of asthma” (Wake Forest University, priority 1998, dated 2012).
“Also recorded” adds a separate entry of the source. Like-named read-outs stand apart in the source and are kept apart here.

Tests used:
[1] = test system: leukotriene generation by stimulated neutrophils; assay: Inhibition of leukotriene generation in A23187-stimulated neutrophils in vitro; assay type: cell-based, human; conditions: neutrophils from unsupplemented volunteers, ionophore A23187, read-out: IC50 of inhibition of leukotriene generation (LTB4 and 20-OH LTB4)
Procedure: (§1) Leukotrienes are separated by reverse phase HPLC utilizing an Ultrasphere ODS column (2.1 mm.×250 mm: Rainin Instrument Co, Woburn, Mass.) eluted with methanol/water/phosphoric acid (550:450:0.2 v/v, pH 5.7) as the mobile phase at 0.3 ml/min. After 5 min the methanol composition of the mobile phase is increased from 55% to 100% over a 20 min period. The mole quantities of each leukotriene are determined by examining its UV optical density at 270 nm. Individual peaks are integrated and their recoveries normalized by comparing these integrated areas to that of PGB2 added as an internal standard.
It is contemplated that neutrophils may also produce 8-hydroxy-9,11,14 […] from DGLA. […] Studies were also designed to examine whether 15-HETrE produced by neutrophils might influence LTB4 generation. […] Neutrophils were isolated from normal unsupplemented volunteers and were treated with various concentrations of 15-HETrE and then stimulated with ionophore A23187.

[2] = test system: Δ^5 desaturase in human liver cell line HEP-G2; assay: Inhibition of DGLA conversion to AA (Δ5 desaturase) in HEP-G2 liver cells; assay type: cell-based; conditions: HepG2, HEP-G2, EPA at 50 μM added with DGLA, read-out: maximum inhibition of DGLA conversion to AA
Source text: This study illustrates the effectiveness of adding a Δ^5 desaturase inhibitor in conjunction with GLA in order to reduce serum arachidonic acid.

neutrophils [3] = conditions: 3.0 g/day GLA
Procedure: as §1
To examine this question, neutrophils were stimulated and the synthesis of LTB4, 20-OH LTB4, and the 6 trans isomers of LTB4 were measured by reverse phase HPLC analysis.

neutrophils [4] = conditions: 3.0 g/day GLA; remark: listed apart in the source
Source text: A final set of studies measured changes in the capacity of neutrophils to generate PAF ex vivo before and after GLA supplementation.

atopic asthmatics [5] = test system: atopic asthmatics
Source text: Clinical data on each patient is entered into a database consisting of the following elements. Demographic data (age, sex, race, smoking history), and the data elements used to fulfill the above diagnostic criteria, spirometric data, presence of atopy (positive “prick” skin testing to respirable antigens), presence of LAR to inhaled antigen, and presence of allergic rhinoconjunctivitis. • Allergen skin testing—Atopic asthmatic subjects are identified by skin testing using the skin prick method at a 1:10 (wt/vol) dilution of 20 stock antigen solutions (Greer Laboratories, Lenoir, N.C.). Subjects must not be receiving immunotherapy, nor may they be treated with systemic corticosteroids for a minimum of 4 wk. Short acting antihistamines are avoided for at least 24 h and long acting for at least 7 days. Atopic subjects are defined as those with a positive response consisting of a wheal of at least 3 by 3 mm to one or more antigens, with an appropriately negative saline control. • Allergen Inhalation Challenge—The immediate (early) asthmatic response (EAR) or late asthmatic response (LAR) is studied under controlled conditions using inhaled antigenic challenge in volunteer patients with asthma using a previously described protocol (Smith et al., Clin. Pharm. Ther., 54:430-436, 1993). Atopic asthmatics undergo inhaled allergen challenge followed by BAL according to the following protocol. Subjects must have no lung disease other than asthma, and, on the day of testing, must have a baseline FEV1>70% of predicted. Subjects must not be receiving immunotherapy, nor may they be treated with cromolyn sodium or corticosteroids (inhaled or systemic) or leukotriene antagonist for a minimum of 4 wk. Short-acting antihistamines are avoided for at least 24 h and intermediate acting for 7 days (astemizole for 6 weeks). Theophylline preparations are withheld for 24 h prior to challenge and beta-agonists for 8 h prior to challenge. On the day of challenge, subjects must be wheeze-free, with an FEV1>than 80% of the previously observed highest value. If the patient has an intercurrent respiratory infection, inhalation challenge is postponed for at least 6 wk. Antigens to which the subject is perennially exposed (e.g., mite, cat) are utilized whenever possible to minimize the impact of seasonal variations in environmental exposure to the specific antigen. Further, antigen testing is conducted out of the respective allergen season, or after attempts to minimize environmental exposure (e.g., to mites or cats) have been implemented. Antigenic challenge generally begins between 7:30 and 8:00 am and the patient is monitored for a minimum of 12 h following antigenic challenge. […] The subject breathes quietly from a continuous hand-held nebulizer for 2 min at each concentration. Following each concentration, the FEV1 is measured at 5 min intervals (DS Plus, Warren E. Collins, Inc., Braintree, Mass.). […] Once a 20% drop in FEV1 is measured, or following the highest concentration, spirometry is performed every 15 min for the first hour and then hourly for the next 11 h.

human neutrophils [6] = assay: In vitro metabolism of GLA / DGLA in cultured human neutrophils; assay type: cell-based
Procedure: It is generally assumed that the liver has a key role in the in vivo elongation and desaturation of n-6 fatty acids. However, the role of other cells (especially inflammatory cells) and tissues has not been extensively studied. In addition, it is critical to evaluate the mechanism of leukotriene inhibition in less complex (than in vivo model) systems. To begin to address these problems, the inventor developed a model in which neutrophils could be incubated long-term with fatty acids or other fatty acid derivatives. Human neutrophils have been isolated and cultured overnight in RPMI, 2% insulin-transferrin and fetal bovine serum (FBS). In initial studies, varying concentrations of GLA (complexed to albumin) were provided to these cultured neutrophils for 24 h. […] In contrast, there was no change in the quantity of AA in neutrophil phospholipids. […] Furthermore, they provide direct evidence that the neutrophils themselves can elongate GLA […].
It has been long recognized that arachidonate is hydrolyzed from membrane glycerolipids by phospholipase A2 isotypes during cell stimulation. However, to date, there is little direct evidence that similar mechanisms exist to mobilize DGLA. To examine this question, neutrophils that had been cultured with varying concentrations of GLA (0 to 200 nmol) were stimulated with ionophore A23187, and mobilized fatty acids were measured by NICI GC/MS. […] To determine if neutrophils can further metabolize DGLA to oxygenated products, stimulated cells were provided [^14C]-DGLA and products were measured by reverse HPLC. […] FIG. 11 illustrates that A23187 stimulated neutrophils produce a labeled product that migrated with 15-HETrE.

neutrophils [7] = test system: neutrophils
Procedure: Free fatty acids are obtained from glycerolipids by base hydrolysis using 2 N KOH (30 min, 60° C.). After the addition of an equal volume of water, the pH of the reaction mixture is adjusted to 3 using 6 N HCl. Free fatty acids are then extracted with ethyl ether and converted to pentafluorobenzylesters using an equal volume of 20% pentafluorobenzylchloride in acetonitrile and 20% diisopropylethylamine in acetonitrile. The carboxylate anion of all fatty acids of interest and [^2H3]-stearic acid and [^2H8]-arachidonate (internal standard) are analyzed by NICI GC/MS using a Hewlett Packard mass spectrometer (HP 5989A).
Neutrophils were next obtained from subjects before and after supplementation and stimulated with ionophore A23187.

human eosinophils = conditions: eosinophils from atopic subjects incubated with GLA
Procedure: Eosinophils are purified by negative, immunomagnetic selection using monoclonals against FcKRIII (CD 16) present on neutrophils. Antibody tagged neutrophils are then incubated with anti-mouse IgG conjugated magnetic beads and removed by filtration over a magnetized steel wool column.
Therefore, it was important to determine how GLA was metabolized by human eosinophils. Thus, eosinophils were isolated from atopic subjects and incubated with GLA as described above.

[8] = in vivo
Procedure: Serum is extracted from 2 ml of venous blood from donors. Briefly, blood samples are incubated at 37° C. for 30 min. Blood clots are removed from the serum by centrifugation (600×g, 10 min). Residual red blood cells are removed from the serum by centrifugation using a Beckman Microfuge E for 5 min. After the addition of 1.9 ml of water to a 0.1 ml aliquot of the serum, lipids are extracted by the method of Bligh and Dyer (Bligh and Dyer, Can. J. Biochem. Physiol., 37:911-920, 1959); Chilton et al., J. Biol. Chem., 258:7268-7271, 1983). A portion (5%) of the extracted lipids is used to determine the mole quantities of fatty acids by GC/MS. Serum components are isolated into individual glycerolipid classes by TLC (System II or normal phase HPLC (Bligh and Dyer, 1959).
Free fatty acids are obtained from glycerolipids by base hydrolysis using 2 N KOH (30 min, 60° C.). […] The carboxylate anion of all fatty acids of interest and [^2H3]-stearic acid and [^2H8]-arachidonate (internal standard) are analyzed by NICI GC/MS using a Hewlett Packard mass spectrometer (HP 5989A). […]
The next set of studies was designed to determine the distribution of supplemented fatty acids or their metabolites within individual glycerolipid classes of serum. […] Serum glycerolipids were separated by TLC and fractions were analyzed for fatty acid content following base hydrolysis by NICI-GC/MS.

atopic asthmatics [9] = assay: Inhaled antigen challenge model of atopic asthma with prednisone; assay type: in vivo, human; conditions: 40 mg prednisone daily for 7 days
Source text: Clinical data on each patient is entered into a database consisting of the following elements. Demographic data (age, sex, race, smoking history), and the data elements used to fulfill the above diagnostic criteria, spirometric data, presence of atopy (positive “prick” skin testing to respirable antigens), presence of LAR to inhaled antigen, and presence of allergic rhinoconjunctivitis. • Allergen skin testing—Atopic asthmatic subjects are identified by skin testing using the skin prick method at a 1:10 (wt/vol) dilution of 20 stock antigen solutions (Greer Laboratories, Lenoir, N.C.). Subjects must not be receiving immunotherapy, nor may they be treated with systemic corticosteroids for a minimum of 4 wk. Short acting antihistamines are avoided for at least 24 h and long acting for at least 7 days. […] Antigenic challenge generally begins between 7:30 and 8:00 am and the patient is monitored for a minimum of 12 h following antigenic challenge. […] Following each concentration, the FEV1 is measured at 5 min intervals (DS Plus, Warren E. Collins, Inc., Braintree, Mass.). […] Once a 20% drop in FEV1 is measured, or following the highest concentration, spirometry is performed every 15 min for the first hour and then hourly for the next 11 h.

human neutrophils [10] = assay: In vitro metabolism of stearidonic acid in cultured human neutrophils; assay type: cell-based; conditions: 24 h
Source text: As described above, human neutrophils (in vitro in overnight culture) will take up GLA and elongate it to DGLA but not further desaturate that DGLA to AA. An alternative route to depleting AA in neutrophils may also be useful in modulating the inflammatory responses mediated by AA and its metabolites. It was contemplated that the n-3 fatty acid, stearidonic acid (18:4) would also be elongated in neutrophils to form ω-3 arachidonic acid (FIG. 1). Varying concentrations of stearidonic acid were provided to cultured neutrophils for 24 h. Lipids were extracted and the quantities of fatty acids determined after base hydrolysis using GC/MS.

[11] = 4.5 g GLA as borage oil, 3 weeks, contemplated

For `CCCCCC(O)/C=C/C=C\C/C=C\CCCCCCC(=O)O` (centres unmarked) [15-HETrE, 15-OH-20:3, reference compound], the IC50 [1] was about 5 µM.

`CCCCC/C=C\C/C=C\C/C=C\CCCCCCC(=O)O` [DGLA, dihomogammalinolenic acid] showed an IC50 ([1]; Homo sapiens, Neutrophil) of about 10 µM.

In the case of `CC/C=C\C/C=C\C/C=C\C/C=C\C/C=C\CCCC(=O)O` [EPA, eicosapentaenoic acid], the inhibition at 50 µM [2] is reported as 50%.

In the case of `CCCCC/C=C\C/C=C\C/C=C\CCCCC(=O)O` [GLA, gammalinolenic acid], the “20-OH LTB4, 6-trans LTB4 and 6-trans 12-epi LTB4 levels after supplementation” value (neutrophils [3]) is reported as “decreased to a similar degree”, the “reduction in LTB4 produced by stimulated neutrophils vs before supplementation” value (neutrophils [3]) is reported as 60% and the “reduction in PAF produced by neutrophils vs before supplementation” value (neutrophils [4]) is reported as 40%. For the same compound, the “antigen-induced urinary LTE4 and BALF AA increases” value (atopic asthmatics [5]; [11]) was “attenuate”, the “influx of eosinophils into airways during the LAR” value (atopic asthmatics [5]; [11]) was “reduce” and the “response to antigen challenge (decrements in FEV1, immediate and late)” value (atopic asthmatics [5]; [11]) was “mitigate”. The “magnitude of the early asthmatic response” value (atopic asthmatics [5]; four weeks GLA supplementation, compared to pre- and post-supplementation, two subjects) was “diminished”, the late asthmatic response (atopic asthmatics [5]; four weeks GLA supplementation, two subjects) was “did not influence” and the “quantity of DGLA in neutrophil glycerolipids” value (human neutrophils [6]; cultured neutrophils, varying concentrations of GLA complexed to albumin, 24 h) was “increased as a function of the concentration of GLA”. For the same compound, the “quantity of AA in neutrophil phospholipids” value (human neutrophils [6]; cultured neutrophils, varying concentrations of GLA, 24 h) was “no change”, the “fatty acids mobilized on A23187 stimulation” value (human neutrophils [6]; neutrophils cultured with GLA (0 to 200 nmol)) was “DGLA along with AA were released” and the “increase in release of DGLA from stimulated neutrophils” value (“increase in release of DGLA” below) (neutrophils [7]; 1.5 g/day GLA) was 63%. The “increase in release of DGLA” value (neutrophils [7]; 3.0 g/day GLA) was 65%, the “increase in release of DGLA” value (neutrophils [7]; 6.0 g/day GLA) was 69% and the “release of AA from neutrophil glycerolipids after A23187 stimulation” value (neutrophils [7]; following GLA supplementation) was “did not change”. The “DGLA in eosinophil glycerolipids” value (human eosinophils) was “marked increase”, the “quantity of AA in eosinophil glycerolipids” value (human eosinophils) was “no change” and the “AA in serum lipids vs baseline” value [8] was “significantly increased”.

In the case of `C[C@]12C=CC(=O)C=C1CC[C@@H]1[C@@H]2C(=O)C[C@@]2(C)[C@H]1CC[C@]2(O)C(=O)CO` [prednisone], the “immediate response and LAR (fall in FEV1) after antigen challenge” value (atopic asthmatics [9]) is reported as “ablated” and the “level of eosinophil cationic protein (ECP) in BALF after antigen challenge” value (atopic asthmatics [9]; p=0.03) is reported as “suppressed”.

With `CC/C=C\C/C=C\C/C=C\C/C=C\CCCCC(=O)O` [stearidonic acid] the AA in neutrophils (human neutrophils [10]) was “nor was there an increase”, the “eicosapentaenoic acid (Δ5 desaturase product of ω-3 arachidonic acid) in neutrophils” value (human neutrophils [10]) was “no increase” and the “ω-3 arachidonic acid in neutrophil glycerolipids” value (human neutrophils [10]; varying concentrations of stearidonic acid) was “dose-dependent increase; also recorded: dramatic increase”.
